What was measured:
Settings in all cases: exposure time: 72 h
[1] = system: FT3469 (normal neural stem cell line); test: phenotypic distance (Euclidean, principal components) from DMSO controls (arbitrary units); higher = stronger morphological change
[2] = system: E28 (patient-derived glioblastoma stem cells of classical subtype); test: as above
[3] = system: E57 (patient-derived glioblastoma stem cells of mesenchymal subtype); test: as above
[4] = system: E31 (patient-derived glioblastoma stem cells of proneural subtype); test: as above
[5] = system: E34 (patient-derived glioblastoma stem cells of proneural subtype); test: as above
[6] = system: E21 (patient-derived glioblastoma stem cells of mesenchymal subtype); test: as above
[7] = system: E13 (patient-derived glioblastoma stem cells of classical subtype); test: as above
[8] = system: FT3469; test: surviving fraction (nuclei count normalised to DMSO); higher = more cells surviving (less toxic)
[9] = system: E28; test: as above
[10] = system: E57; test: as above
[11] = system: E31; test: as above
[12] = system: E34; test: as above
[13] = system: E21; test: as above
[14] = system: E13; test: as above
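Wherever phenotypic distance (Euclidean, principal components) from DMSO controls is given: cell Painting imaging in 384-well plates, CellProfiler features reduced to at least 20 principal components, Euclidean distance versus same-plate DMSO vehicle wells (0.1% v/v), median over six images per well.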
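Wherever surviving fraction (nuclei count normalised to DMSO) is given: nuclei counted by high-content imaging of Hoechst-stained cells in laminin-coated 384-well plates, relative to 0.1% DMSO vehicle wells, with staurosporine as cell-death control.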

CC1(C(=O)O)C2CCC(O2)C1(C)C(=O)O (stereo unspecified) [Cantharidic Acid]
Settings	phenotypic distance	surviving fraction
[1], 4.1 nM	1.06	–
[1], 12.3 nM	0.717	–
[1], 37 nM	0.644	–
[1], 111.1 nM	0.683	–
[1], 333.3 nM	0.991	–
[1], 1000 nM	0.653	–
[1], 3000 nM	2.25	–
[2], 4.1 nM	0.917	–
[2], 12.3 nM	0.654	–
[2], 37 nM	0.463	–
[2], 111.1 nM	0.528	–
[2], 333.3 nM	0.599	–
[2], 1000 nM	0.909	–
[2], 3000 nM	2.54	–
[3], 4.1 nM	0.632	–
[3], 12.3 nM	0.322	–
[3], 37 nM	0.414	–
[3], 111.1 nM	0.564	–
[3], 333.3 nM	0.544	–
[3], 1000 nM	0.751	–
[3], 3000 nM	1.72	–
[4], 4.1 nM	1.05	–
[4], 12.3 nM	0.816	–
[4], 37 nM	1.07	–
[4], 111.1 nM	1.09	–
[4], 333.3 nM	0.68	–
[4], 1000 nM	0.624	–
[4], 3000 nM	1.67	–
[5], 4.1 nM	1.38	–
[5], 12.3 nM	1.36	–
[5], 37 nM	1.46	–
[5], 111.1 nM	1.49	–
[5], 333.3 nM	1.07	–
[5], 1000 nM	0.864	–
[5], 3000 nM	3.29	–
[6], 4.1 nM	0.625	–
[6], 12.3 nM	0.711	–
[6], 37 nM	1.21	–
[6], 111.1 nM	0.773	–
[6], 333.3 nM	0.585	–
[6], 1000 nM	0.482	–
[6], 3000 nM	2.17	–
[7], 4.1 nM	0.746	–
[7], 12.3 nM	0.673	–
[7], 37 nM	0.774	–
[7], 111.1 nM	0.872	–
[7], 333.3 nM	0.83	–
[7], 1000 nM	0.671	–
[7], 3000 nM	2.26	–
[8], 4.1 nM	–	0.889
[8], 12.3 nM	–	0.855
[8], 37 nM	–	1.07
[8], 111.1 nM	–	1.03
[8], 333.3 nM	–	1
[8], 1000 nM	–	1.06
[8], 3000 nM	–	0.777
[9], 4.1 nM	–	0.901
[9], 12.3 nM	–	1.05
[9], 37 nM	–	0.971
[9], 111.1 nM	–	1.07
[9], 333.3 nM	–	1.11
[9], 1000 nM	–	1.15
[9], 3000 nM	–	0.771
[10], 4.1 nM	–	0.985
[10], 12.3 nM	–	0.996
[10], 37 nM	–	0.944
[10], 111.1 nM	–	1.03
[10], 333.3 nM	–	1.04
[10], 1000 nM	–	1.03
[10], 3000 nM	–	0.947
[11], 4.1 nM	–	1.07
[11], 12.3 nM	–	1
[11], 37 nM	–	1.16
[11], 111.1 nM	–	1.05
[11], 333.3 nM	–	1.04
[11], 1000 nM	–	1.08
[11], 3000 nM	–	0.683
[12], 4.1 nM	–	0.916
[12], 12.3 nM	–	1.08
[12], 37 nM	–	0.914
[12], 111.1 nM	–	1.1
[12], 333.3 nM	–	1.22
[12], 1000 nM	–	1.06
[12], 3000 nM	–	0.832
[13], 4.1 nM	–	0.955
[13], 12.3 nM	–	0.853
[13], 37 nM	–	1.11
[13], 111.1 nM	–	1
[13], 333.3 nM	–	1.03
[13], 1000 nM	–	0.954
[13], 3000 nM	–	0.922
[14], 4.1 nM	–	0.839
[14], 12.3 nM	–	0.973
[14], 37 nM	–	0.995
[14], 111.1 nM	–	1.11
[14], 333.3 nM	–	0.921
[14], 1000 nM	–	1.02
[14], 3000 nM	–	0.939

C[C@@]12C(=O)OC(=O)[C@]1(C)[C@H]1CC[C@@H]2O1 [Cantharidin]
Settings	phenotypic distance	surviving fraction
[1], 4.1 nM	1.54	–
[1], 12.3 nM	0.532	–
[1], 37 nM	1.22	–
[1], 111.1 nM	1.87	–
[1], 333.3 nM	5.81	–
[1], 1000 nM	10.9	–
[1], 3000 nM	17.1	–
[2], 4.1 nM	0.669	–
[2], 12.3 nM	0.782	–
[2], 37 nM	1.16	–
[2], 111.1 nM	2.74	–
[2], 333.3 nM	6.99	–
[2], 1000 nM	10.5	–
[2], 3000 nM	17.9	–
[3], 4.1 nM	4.16	–
[3], 12.3 nM	0.795	–
[3], 37 nM	0.509	–
[3], 111.1 nM	1.44	–
[3], 333.3 nM	7.24	–
[3], 1000 nM	9.13	–
[3], 3000 nM	24.7	–
[4], 4.1 nM	1.14	–
[4], 12.3 nM	0.733	–
[4], 37 nM	1.22	–
[4], 111.1 nM	2.51	–
[4], 333.3 nM	10.8	–
[4], 1000 nM	17.7	–
[4], 3000 nM	15.6	–
[5], 4.1 nM	0.932	–
[5], 12.3 nM	0.828	–
[5], 37 nM	0.895	–
[5], 111.1 nM	2.91	–
[5], 333.3 nM	8.47	–
[5], 1000 nM	14.9	–
[5], 3000 nM	24.2	–
[6], 4.1 nM	0.902	–
[6], 12.3 nM	0.679	–
[6], 37 nM	0.822	–
[6], 111.1 nM	2.07	–
[6], 333.3 nM	7.76	–
[6], 1000 nM	24.2	–
[6], 3000 nM	19.8	–
[7], 4.1 nM	0.99	–
[7], 12.3 nM	0.872	–
[7], 37 nM	1.04	–
[7], 111.1 nM	2.26	–
[7], 333.3 nM	7.52	–
[7], 1000 nM	22.3	–
[7], 3000 nM	22.7	–
[8], 4.1 nM	–	0.78
[8], 12.3 nM	–	1.06
[8], 37 nM	–	0.835
[8], 111.1 nM	–	0.714
[8], 333.3 nM	–	0.276
[8], 1000 nM	–	0.0288
[8], 3000 nM	–	0.00288
[9], 4.1 nM	–	1.04
[9], 12.3 nM	–	1.01
[9], 37 nM	–	0.751
[9], 111.1 nM	–	0.783
[9], 333.3 nM	–	0.171
[9], 1000 nM	–	0.0107
[9], 3000 nM	–	0
[10], 4.1 nM	–	0.874
[10], 12.3 nM	–	0.97
[10], 37 nM	–	0.933
[10], 111.1 nM	–	0.882
[10], 333.3 nM	–	0.172
[10], 1000 nM	–	0.00764
[10], 3000 nM	–	0.00204
[11], 4.1 nM	–	0.771
[11], 12.3 nM	–	0.967
[11], 37 nM	–	0.793
[11], 111.1 nM	–	0.531
[11], 333.3 nM	–	0.0179
[11], 1000 nM	–	0
[11], 3000 nM	–	0.00163
[12], 4.1 nM	–	0.848
[12], 12.3 nM	–	1.05
[12], 37 nM	–	1.05
[12], 111.1 nM	–	0.764
[12], 333.3 nM	–	0.323
[12], 1000 nM	–	0.0804
[12], 3000 nM	–	0.0035
[13], 4.1 nM	–	0.865
[13], 12.3 nM	–	1.05
[13], 37 nM	–	0.984
[13], 111.1 nM	–	0.819
[13], 333.3 nM	–	0.148
[13], 1000 nM	–	0.00198
[13], 3000 nM	–	0.00297
[14], 4.1 nM	–	0.826
[14], 12.3 nM	–	0.96
[14], 37 nM	–	0.919
[14], 111.1 nM	–	0.735
[14], 333.3 nM	–	0.139
[14], 1000 nM	–	0.000925
[14], 3000 nM	–	0
